According to ChEMBL document CHEMBL3232923, “Illudins C2 and C3 stimulate lipolysis in 3T3-L1 adipocytes and suppress adipogenesis in 3T3-L1 preadipocytes” (J Nat Prod, 2014):
Activity calls are given as the source filed them. The calls are words filed in the database; no cut-off is given here.

Experiments:
3T3-L1 [1] = assay: Stimulation of lipolysis in mouse 3T3L1 cells after 48 hrs by glycerol release assay in presence of PKA inhibitor H89; format: functional, cell-based
3T3-L1 [2] = assay: Inhibition of mouse 3T3L1 cell differentiation assessed as reduction in intracellular lipid accumulation after 8 days by Oil Red O staining method; format: functional, cell-based
[3] = Reduction of […] mRNA expression in mouse 3T3L1 cells after 24 hrs by RT-PCR analysis; format: functional, cell-based; conditions: 3T3-L1
3T3-L1 [4] = assay: Stimulation of lipolysis in mouse 3T3L1 cells after 48 hrs by glycerol release assay; format: functional, cell-based
3T3-L1 [5] = assay: Induction of PKA-mediated HSL phosphorylation at S563 in mouse 3T3L1 cells at 10 uM after 24 to 48 hrs by immunoblotting; format: cell-based
3T3-L1 [6] = assay: Stimulation of lipolysis in mouse 3T3L1 cells at 10 uM after 48 hrs by glycerol release assay; format: functional, cell-based
[7] = Reduction of […] mRNA expression in mouse 3T3L1 cells at 1 to 10 uM after 24 hrs by […]; format: functional, cell-based; conditions: 3T3-L1
3T3-L1 [8] = assay: Reduction of perilipin protein level in mouse 3T3L1 cells at 10 uM after 24 to 48 hrs by immunoblotting; format: functional, cell-based
3T3-L1 [9] = assay: Reduction of […] protein level in mouse 3T3L1 cells at 10 uM after 24 to 48 hrs by immunoblotting; format: functional, cell-based
3T3-L1 [10] = assay: Stimulation of lipolysis in mouse 3T3L1 cells after 48 hrs by glycerol release assay in presence of JNK inhibitor SP600125; format: functional, cell-based
3T3-L1 [11] = assay: Reduction of lipid content in mature mouse 3T3L1 cells after 7 days by Oil Red O staining method; format: functional, cell-based
3T3-L1 [12] = assay: Induction of PKA-mediated HSL phosphorylation at S660 in mouse 3T3L1 cells at 10 uM after 24 to 48 hrs by immunoblotting; format: cell-based
3T3-L1 [13] = assay: Induction of AMPK-mediated HSL phosphorylation at S565 in mouse 3T3L1 cells at 10 uM after 24 to 48 hrs by immunoblotting; format: cell-based
3T3-L1 [14] = assay: Stimulation of lipolysis in mouse 3T3L1 cells after 48 hrs by glycerol release assay in presence of p38 MAPK inhibitor SB203580; format: functional, cell-based
3T3-L1 [15] = assay: Inhibition of mouse 3T3L1 cell differentiation assessed as reduction in EBPalpha protein level after 8 days by immunoblotting; format: functional, cell-based
[16] = Reduction of HSL mRNA expression in mouse 3T3L1 cells at 1 to 10 uM after 24 hrs by RT-PCR analysis; format: functional, cell-based; conditions: 3T3-L1
3T3-L1 [17] = assay: Reduction of HSL protein level in mouse 3T3L1 cells at 10 uM after 24 to 48 hrs by immunoblotting; format: functional, cell-based
3T3-L1 [18] = assay: Inhibition of mouse 3T3L1 cell differentiation assessed as reduction in PPARgamma gene expression after 2 days by RT-PCR analysis; format: functional, cell-based
[19] = Reduction of perilipin mRNA expression in mouse 3T3L1 cells after 24 hrs by RT-PCR analysis; format: functional, cell-based; conditions: 3T3-L1
3T3-L1 [20] = assay: Stimulation of lipolysis in mouse 3T3L1 cells after 48 hrs by glycerol release assay in presence of ERK inhibitor PD98059; format: functional, cell-based
[21] = Cytotoxicity against mouse 3T3L1 cells at 1 to 10 uM after 48 hrs by MTT assay; format: cell-based; conditions: 3t3-l1, 48 h
3T3-L1 [22] = assay: Inhibition of mouse 3T3L1 cell differentiation assessed as reduction in PPARgamma protein level after 8 days by immunoblotting; format: functional, cell-based
3T3-L1 [23] = assay: Inhibition of mouse 3T3L1 cell differentiation assessed as reduction in EBPalpha gene expression after 2 days by RT-PCR analysis; format: functional, cell-based
3T3-L1 [24] = assay: Stimulation of lipolysis in mouse 3T3L1 cells at 0.25 mM after 48 hrs by glycerol release assay; format: functional, cell-based

SMILES | Activity (3T3-L1 [1]) | inhibition (3T3-L1 [2]) | Activity [3] | Activity (3T3-L1 [4]) | Activity (3T3-L1 [5]) | Activity (3T3-L1 [6]) | Activity [7] | Activity (3T3-L1 [8]) | Activity (3T3-L1 [9]) | Activity (3T3-L1 [10]) | Activity (3T3-L1 [11]) | Activity (3T3-L1 [12]) | Activity (3T3-L1 [13]) | Activity (3T3-L1 [14]) | inhibition (3T3-L1 [15]) | Activity [16] | Activity (3T3-L1 [17]) | inhibition (3T3-L1 [18]) | Activity [19] | Activity (3T3-L1 [20]) | other results
C=C1C(=O)C2=C(C[C@](C)(CO)C2)[C@](C)(O)C12CC2 | inactive | Dose-dependent effect | Dose-dependent effect | Dose-dependent effect | Active | Active | Active | Active | Active | Active | Dose-dependent effect | Active | inactive | Active | Dose-dependent effect | Active | Active | Active | Dose-dependent effect | inactive | Activity [21]: Non-toxic; inhibition (3T3-L1 [22]): Dose-dependent effect; inhibition (3T3-L1 [23]): Active
C=C1C(=O)C2=C(C[C@@](C)(CO)C2)[C@](C)(O)C12CC2 | inactive | Dose-dependent effect | Dose-dependent effect | Dose-dependent effect | Active | Active | Active | Active | Active | Active | Dose-dependent effect | Active | inactive | Active | Dose-dependent effect | Active | Active | Active | Dose-dependent effect | inactive | Activity [21]: Non-toxic; inhibition (3T3-L1 [22]): Dose-dependent effect; inhibition (3T3-L1 [23]): Active
CC(C)NCC(O)c1ccc(O)c(O)c1 (stereo not drawn) | – | – | – | – | – | Active | – | – | – | – | – | – | – | – | – | – | – | – | – | – | –
CC(C)Cn1c(=O)n(C)c(=O)c2nc[nH]c21 | – | – | – | – | – | – | – | – | – | – | – | – | – | – | – | – | – | – | – | – | Activity (3T3-L1 [24]): Active
